Measured values from US20230077362A1 (CORTEVA AGRISCIENCE LLC, priority 2019, published 2023).
Read-outs that look alike come from different tables or passages of the source.

What was measured:
[1] = tested on: Cabbage Looper (Trichoplusia ni) ("CL"), second instar larvae; experiment: Bioassay on cabbage looper (CL), 128-well diet tray assay; format: in vivo; details: for pest or weed control at 50 µg/cm2: Trichoplusia ni; for CL rating: Table ABC, species CL, C = not tested, D = no activity noticed
Outline: (§1)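 Each value represents average percent mortality from eight wells. Larvae were kept in clear-covered trays at 25° C. for five to seven days on a 14-hour light, 10-hour dark schedule before scoring.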

[2] = tested on: Beet Armyworm (Spodoptera exigua) ("BAW"), second instar larvae; experiment: Bioassay on beet armyworm (BAW), 128-well diet tray assay; format: in vivo; details: for pest or weed control at 50 µg/cm2: Spodoptera exigua; for BAW rating: Table ABC, species BAW, C = not tested, D = no activity noticed
Outline: as §1

[3] = read-out: CL (Biological Results, rating)
[4] = read-out: BAW (Biological Results, rating)

SMILES | pest or weed control at 50 µg/cm2 ([1]; read-out: CL rating) | pest or weed control at 50 µg/cm2 ([2]; read-out: BAW rating) | pest or weed control at 50 µg/cm2 [1, 3] | pest or weed control at 50 µg/cm2 [2, 4] | further results
COC(c1ccc(C)cc1N1C(=O)CS/C1=N\C(=O)Nc1ccc(-n2cnc(-c3ccc(OC(F)(F)F)cc3)n2)cc1Cl)C(F)(F)F (centres unmarked) [Compound J729, (Z)-1-(2-Chloro-4-(3-(4-(trifluoromethoxy)phenyl)-1H-1,2,4-triazol-1-yl)phenyl)-3-(3-(5-methyl-2-(2,2,2-trifluoro-1-methoxyethyl)phenyl)-4-oxothiazolidin-2-ylidene)urea] | 50 to 100% | 50 to 100% |  |  | 
CCc1ccc(C)cc1N1C(=O)CS/C1=N\C(=O)Nc1ccc(-c2ncn(-c3ccc(OC(F)(F)C(F)(F)F)cc3)n2)c(C)c1 [Compound J14, (Z)-1-(3-(2-Ethyl-5-methylphenyl)-4-oxothiazolidin-2-ylidene)-3-(3-methyl-4-(1-(4-(perfluoroethoxy)phenyl)-1H-1,2,4-triazol-3-yl)phenyl)urea] |  |  | 50 to 100% | 50 to 100% | 
Cc1ccc(N2C(=O)CS/C2=N\C(=O)Nc2ccc(-c3ncn(-c4ccc(OC(F)(F)F)cc4)n3)cc2F)c(COCC(F)(F)F)c1 [Compound J438] |  |  |  |  | CL rating [1]: A (50-100); BAW rating [2]: A (50-100)
CCc1cc(-c2ncn(-c3ccc(OC(F)(F)F)cc3)n2)ccc1NC(=O)/N=C1\SCC(=O)N1c1cc(N(C)C)ccc1OCCC(F)(F)F [Compound J110, (Z)-1-(3-(5-(Dimethylamino)-2-(3,3,3-trifluoropropoxy)phenyl)-4-oxothiazolidin-2-ylidene)-3-(2-ethyl-4-(1-(4-(trifluoromethoxy)phenyl)-1H-1,2,4-triazol-3-yl)phenyl)urea] |  |  | 50 to 100% | 50 to 100% | 
O=C(/N=C1\SCC(=O)N1c1cc(F)ccc1COCC(F)(F)F)Nc1ccc(-n2cnc(-c3ccc(C(F)(F)F)cc3)n2)cc1F [Compound J699, (Z)-1-(3-(5-Fluoro-2-((2,2,2-trifluoroethoxy)methyl)phenyl)-4-oxothiazolidin-2-ylidene)-3-(2-fluoro-4-(3-(4-(trifluoromethyl)phenyl)-1H-1,2,4-triazol-1-yl)phenyl)urea] | 50 to 100% | 50 to 100% |  |  | 
Cc1ccc(OCCC(F)(F)F)c(N2C(=O)CS/C2=N\C(=O)Nc2ccc(-n3cnc(-c4ccc(OC(F)(F)F)cc4)n3)cc2F)c1 [Compound J693, (Z)-1-(2-Fluoro-4-(3-(4-(trifluoromethoxy)phenyl)-1H-1,2,4-triazol-1-yl)phenyl)-3-(3-(5-methyl-2-(3,3,3-trifluoropropoxy)phenyl)-4-oxothiazolidin-2-ylidene)urea] | 50 to 100% | 50 to 100% |  |  | 
COC(c1ccc(C)cc1N1C(=O)CS/C1=N\C(=O)Nc1ccc(-n2cnc(-c3ccc(C(F)(F)F)cc3)n2)cc1F)C(F)(F)F (centres unmarked) [Compound J696, (Z)-1-(2-Fluoro-4-(3-(4-(trifluoromethyl)phenyl)-1H-1,2,4-triazol-1-yl)phenyl)-3-(3-(5-methyl-2-(2,2,2-trifluoro-1-methoxyethyl)phenyl)-4-oxothiazolidin-2-ylidene)urea] | 50 to 100% | 50 to 100% |  |  | 
Cc1cccc(N2C(=O)CS/C2=N\C(=O)Nc2ccc(-n3cnc(-c4ccc(C(F)(F)F)cc4)n3)cc2F)c1COCC(F)(F)F [Compound J704, (Z)-1-(2-Fluoro-4-(3-(4-(trifluoromethyl)phenyl)-1H-1,2,4-triazol-1-yl)phenyl)-3-(3-(3-methyl-2-((2,2,2-trifluoroethoxy)methyl)phenyl)-4-oxothiazolidin-2-ylidene)urea] | 50 to 100% | 50 to 100% |  |  | 
CCOCc1ccc(C)cc1N1C(=O)CS/C1=N\C(=O)Nc1ccc(-c2nnc(-c3ccc(OC(F)(F)F)cc3)o2)cc1F [Compound J610, (Z)-1-(3-(2-(Ethoxymethyl)-5-methylphenyl)-4-oxothiazolidin-2-ylidene)-3-(2-fluoro-4-(5-(4-(trifluoromethoxy)phenyl)-1,3,4-oxadiazol-2-yl)phenyl)urea] | 50 to 100% | 50 to 100% |  |  | 
Cc1ccc(OCCC(F)(F)F)c(N2C(=O)CS/C2=N\C(=O)Nc2ccc(-c3ncn(-c4ccc(OC(F)(F)F)cc4)n3)cc2C#N)c1 [Compound J243, (Z)-1-(2-Cyano-4-(1-(4-(trifluoromethoxy)phenyl)-1H-1,2,4-triazol-3-yl)phenyl)-3-(3-(5-methyl-2-(3,3,3-trifluoropropoxy)phenyl)-4-oxothiazolidin-2-ylidene)urea] |  |  | 50 to 100% | 50 to 100% | 
Cc1ccc(COCC(F)(F)F)c(N2C(=O)C(Cl)(Cl)S/C2=N\C(=O)Nc2ccc(-c3ncn(-c4ccc(OC(F)(F)F)cc4)n3)cc2F)c1 [Compound J458, (Z)-1-(5,5-dichloro-3-(5-methyl-2-((2,2,2-trifluoroethoxy)methyl)phenyl)-4-oxothiazolidin-2-ylidene)-3-(2-fluoro-4-(1-(4-(trifluoromethoxy)phenyl)-1H-1,2,4-triazol-3-yl)phenyl)urea] | 50 to 100% | 50 to 100% |  |  | 
COc1cc(-c2ncn(-c3ccc(OC(F)(F)C(F)(F)F)cc3)n2)ccc1NC(=O)/N=C1\SCC(=O)N1c1cc(C)ccc1C(C)C [Compound J28, (Z)-1-(3-(2-Isopropyl-5-methylphenyl)-4-oxothiazolidin-2-ylidene)-3-(2-methoxy-4-(1-(4-(perfluoroethoxy)phenyl)-1H-1,2,4-triazol-3-yl)phenyl)urea] |  |  | 50 to 100% | 50 to 100% | 
Cc1ccc(COCC(F)(F)Cl)c(N2C(=O)CS/C2=N\C(=O)Nc2ccc(-c3ncn(-c4ccc(OC(F)(F)F)cc4)n3)cc2F)c1 [Compound J437] |  |  |  |  | CL rating [1]: A (50-100); BAW rating [2]: A (50-100)
Cc1ccc(COCC(F)F)c(N2C(=O)CS/C2=N\C(=O)Nc2ccc(-c3nnn(-c4ccc(OC(F)(F)F)cc4)n3)cc2)c1 [Compound J768, (Z)-1-(3-(2-((2,2-Difluoroethoxy)methyl)-5-methylphenyl)-4-oxothiazolidin-2-ylidene)-3-(4-(2-(4-(trifluoromethoxy)phenyl)-2H-tetrazol-5-yl)phenyl)urea] | 50 to 100% | 50 to 100% |  |  | 
COC(C)c1ccc(C)cc1N1C(=O)CS/C1=N\C(=O)Nc1ccc(-c2ncn(-c3ccc(C(F)(F)F)cn3)n2)cc1F (centres unmarked) [Compound J280, (Z)-1-(2-Fluoro-4-(1-(5-(trifluoromethyl)pyridin-2-yl)-1H-1,2,4-triazol-3-yl)phenyl)-3-(3-(2-(1-methoxyethyl)-5-methylphenyl)-4-oxothiazolidin-2-ylidene)urea] |  |  | 50 to 100% | 50 to 100% | 
Cc1ccc(COCCC(F)(F)F)c(N2C(=O)CS/C2=N\C(=O)Nc2ccc(-c3ncn(-c4ccc(C(F)(F)F)cc4)n3)cc2F)c1 [Compound J547] |  |  |  |  | CL rating [1]: A (50-100); BAW rating [2]: A (50-100)
CCOCc1ccc(C)cc1N1C(=O)CS/C1=N\C(=O)Nc1ccc(-c2ncn(-c3ccc(OC)cc3)n2)cc1F [Compound J755, (Z)-1-(3-(2-(Ethoxymethyl)-5-methylphenyl)-4-oxothiazolidin-2-ylidene)-3-(2-fluoro-4-(1-(4-methoxyphenyl)-1H-1,2,4-triazol-3-yl)phenyl)urea] | 50 to 100% | 50 to 100% |  |  | 
Cc1ccc(C(F)(F)F)c(N2C(=O)CS/C2=N\C(=O)Nc2ccc(-c3ncn(-c4ccc(OC(F)(F)F)cc4)n3)cc2F)c1 [Compound J30, (Z)-1-(2-Fluoro-4-(1-(4-(trifluoromethoxy)phenyl)-1H-1,2,4-triazol-3-yl)phenyl)-3-(3-(5-methyl-2-(trifluoromethyl)phenyl)-4-oxothiazolidin-2-ylidene)urea] |  |  | 50 to 100% | 50 to 100% | 
CCOC(C)c1ccc(C)cc1N1C(=O)CS/C1=N\C(=O)Nc1ccc(-c2cn(-c3ccc(OC(F)(F)F)cc3)cn2)cc1C (centres unmarked) [Compound J486, (Z)-1-(3-(2-(1-Ethoxyethyl)-5-methylphenyl)-4-oxothiazolidin-2-ylidene)-3-(2-methyl-4-(1-(4-(trifluoromethoxy)phenyl)-1H-imidazol-4-yl)phenyl)urea] | 50 to 100% | 50 to 100% |  |  | 
COC(C)c1ccc(C)cc1N1C(=O)CS/C1=N\C(=O)Nc1ccc(-c2ncn(-c3ccc(OCC#N)cc3)n2)cc1F (centres unmarked) [Compound J340, (Z)-1-(4-(1-(4-(Cyanomethoxy)phenyl)-1H-1,2,4-triazol-3-yl)-2-fluorophenyl)-3-(3-(2-(1-methoxyethyl)-5-methylphenyl)-4-oxothiazolidin-2-ylidene)urea] |  |  | 50 to 100% | 50 to 100% | 
Cc1ccc(Cc2ccccc2)c(N2C(=O)CS/C2=N\C(=O)Nc2ccc(-c3ncn(-c4ccc(OC(F)(F)F)cc4)n3)cc2F)c1 [Compound J457, (Z)-1-(3-(2-Benzyl-5-methylphenyl)-4-oxothiazolidin-2-ylidene)-3-(2-fluoro-4-(1-(4-(trifluoromethoxy)phenyl)-1H-1,2,4-triazol-3-yl)phenyl)urea] | 50 to 100% | 50 to 100% |  |  | 
Cc1ccc(OCCC(F)(F)F)c(N2C(=O)CS/C2=N\C(=O)Nc2ccc(-c3ncn(-c4ccc([S+]([O-])C(F)(F)F)cc4)n3)cc2F)c1 (centres unmarked) [Compound J382, (Z)-1-(2-Fluoro-4-(1-(4-((trifluoromethyl)sulfinyl)phenyl)-1H-1,2,4-triazol-3-yl)phenyl)-3-(3-(5-methyl-2-(3,3,3-trifluoropropoxy)phenyl)-4-oxothiazolidin-2-ylidene)urea] | 50 to 100% | 50 to 100% |  |  | 
